What all share (type): biochemical
One experiment concerns trypsin. Nature of the experiment: Trypsin activity assay. Conditions: statement on Table 1 (FIG. 2(a)). As to the method: For trypsin activity assay, 4 μl of trypsin (100 nM) was first mixed with 61 μl of buffer, 5 μl of DMSO or 5 μl of compound (in DMSO), followed by 15 minute incubation at 37° C. Then 10 μl of substrate S-2222 (4.8 mM) was added to start the reaction. After a 15 minute incubation at 37° C., 20 μl of 50% acetic acid was added to quench the reaction. Absorbance at 405 nm was then measured and the percent inhibition of trypsin activity was calculated from OD405 nm values in the absence and presence of a compound.

Experiment [1] addresses Russell's viper venom (RVV) (Daboia siamensis, UniProt Q7LZ61).
For a further experiment, the target named is T1, TF/FVIIa complex (Homo sapiens, UniProt P08709+P13726, DEL276-295).
T1 construct: proteolytic cleavage of the zymogen FVII to the active serine protease FVIIa; Truncated recombinant human tissue factor (e.g. composed of 243 amino acids) is expressed in E. coli; host or cells: E. coli (TF)
Put plainly: FVIIa activity assay (TF/VIIa catalytic activity toward S-2288). Conditions: statement on Table 1 (FIG. 2(a)). As to the method:
Factor VIIa (FVIIa) activity, or the effect of TF and FVIIa interactions, can be determined in the presence of TF using FX and a small peptide (chromogenic) substrate or in the absence of TF using FX as substrate. Assays using FVIIa-specific chromogenic substrate S-2288 directly measures the effect of a compound on FVIIa catalytic activity. In this assay, 55 μl of TF/FVIIa complex (containing 10 nM TF and 10 nM VIIa) was first incubated with 5 μl of DMSO (or diluted DMSO) or compound, in a 96-well plate for 15 minutes at 37° C., then admixed with 20 μl of 8 mM S-2288. The reaction was incubated for 1–2 hours at 37° C. Absorbance at 405 nm was then measured after the reaction was quenched with 20 μl of 50% acetic acid. The percent inhibition of TF/VIIa activity was calculated from OD405 nm values in the absence and presence of a compound. […] Inhibition of TF/VIIa activity toward S-2288 by the two compounds would be expected if they were to bind to VIIa active site or prevent TF and VIIa from forming an active complex.

In the next experiment the target is T2, thrombin (Homo sapiens, UniProt P00734).
T2 construct: followed by addition of 10 μl of thrombin (20 nM); purchased Enzyme Research Laboratories Inc
Nature of the experiment: Thrombin activity assay. Conditions: statement on Table 1 (FIG. 2(a)). As to the method:
For thrombin activity assay, 55 μl of buffer was mixed with 5 μl of DMSO or compound, followed by addition of 10 μl of thrombin (20 nM). Mix and incubate at 37° C. for 10 minutes. Then 10 μl of substrate S-2238 was added and allowed to incubate at 37° C. for 15–20 minutes. Absorbance at 405 nm was then measured and the percent inhibition of thrombin activity was calculated from OD405 nm values in the absence and presence of a compound.

Experiment [2] relates to human plasma (TF-initiated clotting). Nature of the experiment: Prothrombin time (PT) assay. Conditions: lipidated recombinant tissue factor 1–3 nM, statement on FIG. 4. Here is the method: Clot times are generally measured in seconds. Preferred PT assays are typically performed by adding a suitable amount (e.g. about 1 to 3 nM) of lipidated tissue factor to an assay solution that includes conventionally citrated plasma. The PT assay measures TF-mediated blood plasma clot time and is preferably performed by conducting the following steps: • 1) providing about 0.1 ml of citrated human plasma in a suitable assay solution, and combining same with between from about 0.5 μl to 10 μl of at least one compound to be tested (optionally dissolved in vehicle such as water or dimethylsulfoxide (DMSO)) and incubating same at room temperature for about 3 to 10 minutes, • 2) admixing into the solution from between about 0.2 ml (ca. 1–3 nM recombinant human tissue factor) and about 5–10 mM of calcium to initiate plasma clotting; and • 3) measuring the plasma clot time to determine the prothrombin clot time (PT).
The PT assay was performed at 37° C. with an Electra 800 (Medical Automation, Inc.). The PT reaction was initiated by adding 0.2 ml of lipidated recombinant human tissue factor into 0.105 ml of human plasma (Ci-Trol Control Level I, from VWR, Cat. No. 68100-336). […] Following mixing the compound (or DMSO) with plasma (Ci-Trol), 0.2 ml of lipidated reocombinant tissue factor (1–3 nM) is added to the plasma and clotting times were measured within 10 min.

Chain of Russell's viper venom (RVV) (Q7LZ61 whole entry, looked up): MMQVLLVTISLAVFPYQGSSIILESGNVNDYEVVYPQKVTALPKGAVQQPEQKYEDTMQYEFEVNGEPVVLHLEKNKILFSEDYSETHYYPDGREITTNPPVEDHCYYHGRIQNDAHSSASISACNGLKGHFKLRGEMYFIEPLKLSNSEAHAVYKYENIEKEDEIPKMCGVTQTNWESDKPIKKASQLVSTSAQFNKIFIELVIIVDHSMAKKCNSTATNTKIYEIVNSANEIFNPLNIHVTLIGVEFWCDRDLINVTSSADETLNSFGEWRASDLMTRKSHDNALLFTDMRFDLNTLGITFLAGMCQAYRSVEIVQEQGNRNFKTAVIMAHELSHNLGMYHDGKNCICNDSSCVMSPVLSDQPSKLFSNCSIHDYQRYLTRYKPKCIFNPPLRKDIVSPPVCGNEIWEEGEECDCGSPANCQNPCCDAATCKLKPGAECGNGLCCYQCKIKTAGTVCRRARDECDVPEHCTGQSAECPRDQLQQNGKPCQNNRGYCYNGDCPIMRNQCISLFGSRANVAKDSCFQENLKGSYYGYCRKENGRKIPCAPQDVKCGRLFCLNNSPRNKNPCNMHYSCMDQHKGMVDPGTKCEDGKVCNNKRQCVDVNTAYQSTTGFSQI

`O=P(O)(O)C(CNc1cccc(O)c1)P(=O)(O)O` [Compound 1, 1-(bisphosponate)-2-amino(3-hydroxyphenyl)ethyl]: in the experiment on trypsin, the “inhibition of trypsin activity” value was “do not inhibit trypsin activity”. The “inhibition of RVV-dependent FX activation” value in experiment [1] was “do not inhibit RVV catalytic activity”. Also, the “effect on TF/VIIa catalytic activity toward S-2288” value at TF/FVIIa complex is reported as “do not have significant effect”. For the same compound, the “inhibition of thrombin activity” value against thrombin is on record as “do not inhibit thrombin activity”. Also, the “effect on TF-initiated PT times (clotting time)” value in experiment [2] was “prolonged TF-initiated PT times significantly”.

With `O=P(O)(O)C(CNc1ccc(O)cc1)P(=O)(O)O` [Compound 2], the “inhibition of trypsin activity” value in the experiment with trypsin was “do not inhibit trypsin activity”. In addition, the “inhibition of RVV-dependent FX activation” value in experiment [1] is listed as “do not inhibit RVV catalytic activity”. At TF/FVIIa complex, the “effect on TF/VIIa catalytic activity toward S-2288” value is “do not have significant effect”. Moreover, the “inhibition of thrombin activity” value at thrombin is “do not inhibit thrombin activity”. Moreover, the “effect on TF-initiated PT times (clotting time)” value in experiment [2] is “prolonged TF-initiated PT times significantly”.
